One data set has as its system BVDV. The data set can be described thus: BVDV antiviral assay in MDBK cells, XTT readout of inhibition of virus-induced cell killing. To be noted: for Comments: activity against BVDV / toxicity; for TI: TC50/IC50. Type of data set: cell-based. How it is done: (§1) Madin-Darby bovine kidney (MDBK) cells were passaged in T-75 flasks for use in the assay. On the day preceding the assay, the cells were trypsinized, pelleted, counted and resuspended at 6×10^4/well in tissue culture medium. Cells were added to 96 well flat bottom plates in a volume of 100 μl per well.
A pretitered aliquot of virus is removed from the freezer (−80° C.) and allowed to thaw slowly to room temperature in a biological safety cabinet. The virus is diluted into tissue culture medium such that the amount of virus added to each well in a volume of 100 μl will be the amount determined to give complete cell killing at 6 days post-infection.
(§2) Interferon was purchased from PBL Biomedical Laboratories (New Brunswick, N.J.) and was in PBS solutions. On the day of testing, the drug stock is diluted in the medium to the desired high concentration and then further diluted in the medium in half log series.
(§3) The day following plating of cells, plates are removed from the incubator, and medium is removed and discarded. Drug dilutions are added to appropriate wells of the microtiter plate in a volume of 100 μl per well. Each dilution is set up in triplicate. Complete medium or complete medium containing appropriately diluted virus is added to appropriate wells in a volume of 100 μl per well.
(§4) The format of the test plate has been standardized. Each plate contains cell control wells (cell only), virus control wells (cells plus virus), drug toxicity control wells (cells plus drug only), drug colorimetric control wells (drug only) as well as experimental wells (drugs plus cells plus virus).
(§5) The cell viability was evaluated by a dye (XTT) uptake procedure. XTT-tetraolium is metabolized by the mitochontrial enzymes of metabolically active cells to a soluble formazan product, allowing the rapid quantitative analysis of the inhibition of virus-induced cell killing by antiviral test substances.
(§6) XTT solution was prepared daily as a stock of 1 mg/ml in PBS. Phenazine methosulfate (PMS) solution was prepared at 15 mg/ml in PVBS and stored in the dark at −20° C. STT/PMS stock was prepared immediately before use by diluting PMS 1:100 into PBS and adding 40 μl per ml of XTT solution. Fifty microliters of XTT/PMS was added to each well of the plate (each well had been loaded with 100 μl fresh medium) and the plate was reincubated for 4 hours at 37° C.
(§7) Adhesive plate sealers were used in place of the lids, the sealed plate was inverted several times to mix the soluble formazan product and the plate was read spectrophotometrically at 450 nm (XTT) with a Molecular Devices Vmax plate reader.
(§8) The efficacy and toxicity of inteferons are analyzed using a computer program (developed by Southern Research Institute) which calculates % CPE reduction, % cell viability, IC25,50 & 95, TC5,50 & 95 and other indices.
(§9) Combination effects are analyzed statistically by Prichard and Shipman method. Effects of the drug combination on efficacy and toxicity are calculated based on the activity or toxicity of the two compounds when tested alone. The expected additive inhibition rate of virus production or the expected additive cell viability rate subtracted from the experimentally determined inhibition rate or viability rate at each combination concentration results in a positive value (synergy), a negative value (antagonism), or zero (addivity).
(In general: Formazan colour is commonly taken as a measure of viable cells.)

In data set [1] the test system is Madin-Darby bovine kidney (MDBK) cells. The data set can be described thus: Cytotoxicity in MDBK cells (drug toxicity control wells, XTT). How it is done: as §1, §2, §3, §4, §5, §6, §7, §8, §9
[2] abbreviates: Compound conc 0.020, INF-αA conc 0.
Setting [3] is: Compound conc 0.020, Ribavirin conc 0.
Where [4] appears, read: Compound conc 0.063, INF-αA conc 0.
Where [5] appears, read: Compound conc 0.063, Ribavirin conc 0.
[6] abbreviates: Compound conc 0.200, INF-αA conc 0.
[7] abbreviates: Compound conc 0.200, Ribavirin conc 0.
Setting [8] is: Compound conc 0.633, INF-αA conc 0.
The mark [9] stands for this setting: Compound conc 0.633, Ribavirin conc 0.
The mark [10] stands for this setting: Compound conc 2.00, INF-αA conc 0.
The mark [11] stands for this setting: Compound conc 2.00, Ribavirin conc 0.

Like-named read-outs stand apart in the source and are kept apart here. Marks after values point to notes of the source that are not given here. A value given as a limit tells only on which side of the number the result lay.

As to `NC(=O)c1ncn([C@@H]2O[C@H](CO)[C@@H](O)[C@H]2O)n1` [Ribavirin, 1-β-D-ribofuranosyl-1H-1,2,4-triazole-3carboxamide, reference compound], the IC50 in the data set with BVDV (Bovine viral diarrhea virus isolates and strains, MDBK) worked out at 0.66 mg/L. The “Antiviral Percentage Inhibition” value in the data set on BVDV (Compound conc 0, Ribavirin conc 0.075) is 0%; in the data set on BVDV (Compound conc 0, Ribavirin conc 0.238), 5.2%; with BVDV (Compound conc 0, Ribavirin conc 0.751), 5%; in the data set on BVDV (Compound conc 0, Ribavirin conc 2.373) it was 7.9%; with BVDV (Compound conc 0, Ribavirin conc 7.5), 43.7%; with BVDV (Ribavirin conc 0.075, INF-αA conc 0), 0%. In addition, the “Antiviral Percentage Inhibition” value in the data set on BVDV (Ribavirin conc 0.238, INF-αA conc 0) was 5%; in the data set with BVDV (Ribavirin conc 0.751, INF-αA conc 0), 3%; in the data set with BVDV (Ribavirin conc 2.373, INF-αA conc 0), 31.5%; with BVDV (Ribavirin conc 7.500, INF-αA conc 0), 41.6%. Besides, the Comments result in the data set on BVDV is “Active/Toxic”. Moreover, the TC50 in data set [1] (MDBK cells, unit per footnote) is listed as 7.19* μg/ml.
For the molecule “(5-Phenyl-1,2,4-thiadiazol)-3-yl thiourea [Compound]”, the “Antiviral Percentage Inhibition” value in the data set on BVDV (setting [2]) is reported as 5.8%; in the data set with BVDV (setting [3]) it was 7.3%; with BVDV (setting [4]), 7%; with BVDV (setting [5]), 5%; with BVDV (setting [6]) it was 4%; in the data set with BVDV (setting [7]), 3.6%. Moreover, the “Antiviral Percentage Inhibition” value with BVDV (setting [8]) amounted to 11.7%; in the data set with BVDV (setting [9]), 7.6%; with BVDV (setting [10]), 25.9%; in the data set with BVDV (setting [11]) it was 29.5%. Moreover, the “combination effect on activity against BVDV in vitro (words)” value in the data set on BVDV (listed as (5-Phenyl -1,2,4-thiadiazol)-3-yl thiourea) was “acts synergistically with INF-αA”; with BVDV (listed as (5-Phenyl-1,2,4-thiadiazol)-3-yl thiourea), “does not have antagonistic effect on activity of ribavirin”. Further, the “Cytotoxicity Percentage” value in data set [1] (setting [2]) is recorded as 0%; in data set [1] (setting [3]), 16.3%; in data set [1] (setting [4]), 5.8%; in data set [1] (setting [5]), 6.7%; in data set [1] (setting [6]) it was 8.3%; in data set [1] (setting [7]), 6.2%. The “Cytotoxicity Percentage” value in data set [1] (setting [8]) is 13.5%; in data set [1] (setting [9]), 16.9%; in data set [1] (setting [10]) it was 10.3%; in data set [1] (setting [11]), 18.8%. Besides, the “combination effect on toxicity of ribavirin towards the cells” value in data set [1] (in vitro) is reported as “imposes antagonistic effect on toxicity of ribavirin”.
For the molecule INF-α I: human IFN-α species I, the IC50 in the data set on BVDV (BVDV in MDBK cells) turned out to be 26.80 U/ml. In the data set on BVDV, the TI is more than 11.81 and the Comments result was “Active/Nontoxic”. Moreover, the TC50 in data set [1] is more than 316.00 U/ml.

B1: INF-α F: human IFN-α species F (protein, UniProt P01568 24-189, looked up)
Interferon alpha-21: CDLPQTHSLGNRRALILLAQMGRISPFSCLKDRHDFGFPQEEFDGNQFQKAQAISVLHEMIQQTFNLFSTKDSSATWEQSLLEKFSTELNQQLNDLEACVIQEVGVEETPLMNVDSILAVKKYFQRITLYLTEKKYSPCAWEVVRAEIMRSFSLSKIFQERLRRKE
Turning to B1, the IC50 in the data set on BVDV (BVDV in MDBK cells) stood at 33.00 U/ml. Moreover, in the data set on BVDV, the TI was more than 9.57 and the Comments result was “Active/Nontoxic”. Also, the TC50 in data set [1] was more than 316.00 U/ml.

B2: INF-α J1: human IFN-α species J1 (protein, UniProt P01567 24-189, looked up)
Interferon alpha-7: CDLPQTHSLRNRRALILLAQMGRISPFSCLKDRHEFRFPEEEFDGHQFQKTQAISVLHEMIQQTFNLFSTEDSSAAWEQSLLEKFSTELYQQLNDLEACVIQEVGVEETPLMNEDFILAVRKYFQRITLYLMEKKYSPCAWEVVRAEIMRSFSFSTNLKKGLRRKD
For B2, in the data set with BVDV (BVDV in MDBK cells), the IC50 amounted to 10.60 U/ml. Moreover, in the data set with BVDV, the TI is recorded as more than 29.90 and the Comments entry was “Active/Nontoxic”. In addition, the TC50 in data set [1] is more than 316.00 U/ml.

B3: INF-α G: human IFN-α species G (protein, UniProt P01569 22-189, looked up)
Interferon alpha-5: LGCDLPQTHSLSNRRTLMIMAQMGRISPFSCLKDRHDFGFPQEEFDGNQFQKAQAISVLHEMIQQTFNLFSTKDSSATWDETLLDKFYTELYQQLNDLEACMMQEVGVEDTPLMNVDSILTVRKYFQRITLYLTEKKYSPCAWEVVRAEIMRSFSLSANLQERLRRKE
As for B3, the IC50 in the data set with BVDV (BVDV in MDBK cells) is given as 23.60 U/ml. Further, in the data set on BVDV, the TI is recorded as more than 13.40 and the Comments result is reported as “Active/Nontoxic”. Also, in data set [1], the TC50 is more than 316.00 U/ml.

B4: INF-α D: human IFN-α species D (protein, UniProt P01562 24-189, looked up)
Interferon alpha-1/13: CDLPETHSLDNRRTLMLLAQMSRISPSSCLMDRHDFGFPQEEFDGNQFQKAPAISVLHELIQQIFNLFTTKDSSAAWDEDLLDKFCTELYQQLNDLEACVMQEERVGETPLMNADSILAVKKYFRRITLYLTEKKYSPCAWEVVRAEIMRSLSLSTNLQERLRRKE
In the case of B4, the IC50 in the data set on BVDV (BVDV in MDBK cells) was 11.60 U/ml. In addition, in the data set with BVDV, the TI was more than 27.31 and the Comments entry is recorded as “Active/Nontoxic”. Moreover, the TC50 in data set [1] was more than 316.00 U/ml.

B5: INF-α C: human IFN-α species C (protein, UniProt P01566 24-189, looked up)
Interferon alpha-10: CDLPQTHSLGNRRALILLGQMGRISPFSCLKDRHDFRIPQEEFDGNQFQKAQAISVLHEMIQQTFNLFSTEDSSAAWEQSLLEKFSTELYQQLNDLEACVIQEVGVEETPLMNEDSILAVRKYFQRITLYLIERKYSPCAWEVVRAEIMRSLSFSTNLQKRLRRKD
B5: the IC50 in the data set with BVDV (BVDV in MDBK cells) is 9.12 U/ml. In the data set on BVDV, the TI is more than 34.66 and the Comments entry was “Active/Nontoxic”. Further, in data set [1], the TC50 is recorded as more than 316.00 U/ml.

B6: INF-α K: human IFN-α species K (protein, UniProt P05013 21-189, looked up)
Interferon alpha-6: SLDCDLPQTHSLGHRRTMMLLAQMRRISLFSCLKDRHDFRFPQEEFDGNQFQKAEAISVLHEVIQQTFNLFSTKDSSVAWDERLLDKLYTELYQQLNDLEACVMQEVWVGGTPLMNEDSILAVRKYFQRITLYLTEKKYSPCAWEVVRAEIMRSFSSSRNLQERLRRKE
In the case of B6, the IC50 with BVDV (BVDV in MDBK cells) turned out to be 24.80 U/ml. In the data set on BVDV, the TI was more than 12.72 and the Comments entry is reported as “Active/Nontoxic”. Moreover, the TC50 in data set [1] is more than 316.00 U/ml.

B7: INF-α H2: human IFN-α species H2 (protein, UniProt P01570 24-189, looked up)
Interferon alpha-14: CNLSQTHSLNNRRTLMLMAQMRRISPFSCLKDRHDFEFPQEEFDGNQFQKAQAISVLHEMMQQTFNLFSTKNSSAAWDETLLEKFYIELFQQMNDLEACVIQEVGVEETPLMNEDSILAVKKYFQRITLYLMEKKYSPCAWEVVRAEIMRSLSFSTNLQKRLRRKD
B7: in the data set with BVDV (BVDV in MDBK cells), the IC50 worked out at 7.00 U/ml. Moreover, in the data set with BVDV, the TI is more than 45.12 and the Comments result is “Active/Nontoxic”. In data set [1], the TC50 is recorded as more than 316.00 U/ml.

B8: INF-α WA: human IFN-α species WA (protein, UniProt P05015 24-189, looked up)
Interferon alpha-16: CDLPQTHSLGNRRALILLAQMGRISHFSCLKDRYDFGFPQEVFDGNQFQKAQAISAFHEMIQQTFNLFSTKDSSAAWDETLLDKFYIELFQQLNDLEACVTQEVGVEEIALMNEDSILAVRKYFQRITLYLMGKKYSPCAWEVVRAEIMRSFSFSTNLQKGLRRKD
In the case of B8, the IC50 with BVDV (BVDV in MDBK cells) came out at 6.75 U/ml. Moreover, in the data set on BVDV, the TI was more than 46.78 and the Comments result is on record as “Active/Nontoxic”. Moreover, in data set [1], the TC50 is given as more than 316.00 U/ml.
